# Test results published in patent publication US4722927A, “Pyrimidine amides of oleic or linoleic acid, composition containing them and their use as inhibitors of acyl-CoA cholesterol acyltransferase” (Warner-Lambert Company, priority 1986, dated 1988).
# Molecular target: T1, acyl-CoA:cholesterol acyltransferase (ACAT) (Oryctolagus cuniculus, UniProt G1SFD9)
# T1 construct: a tissue preparation containing rabbit intestinal microsomes; from tissue; host or cells: rabbit intestinal microsomes
# T1 sequence (G1SFD9 1-524): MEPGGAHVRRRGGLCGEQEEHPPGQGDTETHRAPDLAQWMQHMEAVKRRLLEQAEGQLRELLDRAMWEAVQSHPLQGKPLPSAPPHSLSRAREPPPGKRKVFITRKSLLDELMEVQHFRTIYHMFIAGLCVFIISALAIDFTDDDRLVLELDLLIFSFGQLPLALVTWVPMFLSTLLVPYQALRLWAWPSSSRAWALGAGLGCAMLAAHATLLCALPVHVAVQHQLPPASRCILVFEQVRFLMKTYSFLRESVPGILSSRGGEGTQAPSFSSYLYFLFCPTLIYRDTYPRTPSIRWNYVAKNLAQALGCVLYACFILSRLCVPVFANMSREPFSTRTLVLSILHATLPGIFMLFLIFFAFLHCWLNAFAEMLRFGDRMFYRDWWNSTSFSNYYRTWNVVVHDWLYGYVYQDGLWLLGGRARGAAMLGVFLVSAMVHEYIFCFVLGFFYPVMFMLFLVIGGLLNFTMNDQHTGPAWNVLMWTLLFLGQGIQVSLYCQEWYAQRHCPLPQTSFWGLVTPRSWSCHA
# Assay: In vitro inhibition of ACAT: radio-labeled cholesterol oleate formed from radio-labeled oleic acid in rabbit intestinal microsomes
# Format: biochemical
# Procedure: The ability of representative compounds of the present invention to inhibit ACAT was measured using an in vitro test more fully described in Field, F. J. and Salone, R. G., Biochemica et Biophysica 712: 557-570 (1982). The test assesses the ability of a test compound to inhibit the acylation of cholesterol by oleic acid by measuring the amount of radio-labeled cholesterol oleate formed from radio-labeled oleic acid in a tissue preparation containing rabbit intestinal microsomes.
# The data appear in Table 1 where they are expressed as IC50 values; i.e. the concentration of test compound required to inhibit 50% […] of the enzyme.
row,SMILES,IC50
1,"CCCCCCCC/C=C\CCCCCCCC(=O)Nc1c(OCC)ncnc1OCC [(Z)-N-(4,6-diethoxy-5-pyrimidinyl)-9-octadecenamide]",530 nM
2,"CCCCCCCC/C=C\CCCCCCCC(=O)Nc1c(OC)ncnc1OC [(Z)-N-(4,6-dimethoxy-5-pyrimidinyl)-9-octadecenamide]",200 nM
